# Measurements reported in patent publication US5912259A, “Method for treating and preventing neurodegenerative disorders by administering a thiazolidinone” (Warner-Lambert Company, priority 1998, dated 1999).
# Experiments:
# 5-lipoxygenase = conditions: described in U.S. Pat. No. 5,143,928; cited from earlier work
# cyclooxygenase = conditions: described in U.S. Pat. No. 5,143,928; cited from earlier work
# NMDA-induced injury = tested on: NMDA-induced injury
# Description: Intrastriatal injections of NMDA (15 nmol/0.5 μL) were performed in male and female Sprague-Dawley rat pups (Charles River Laboratory, Portage, Mich.) on Postnatal Day (PND) 7. The animals were anesthetized with ether, and the calvarium was exposed by a midline incision through the skin. The rat pups were placed in a plaster of paris mold that was secured to a small animal stereotaxic instrument (Kopf Instruments). NMDA (Sigma) was dissolved in 0.1 M phosphate-buffered saline (PBS) adjusted to pH 7.4 with 1 N NaOH. Injections of NMDA ([…]) were placed in the middle of the right posterior corpus striatum (coordinates relative to Bregma; AP -2.0 mm, ML 2.5 mm, at a depth of 4.0 mm from the dura) with a 26-gauge Hamilton syringe. The syringe was left in place for 2 minutes following the injections to limit leakage. Temperature of the animals was kept constant after surgery in a thermostatically controlled environment (HovaBator chick incubator; BFG Corp., Savannah, Ga.) set at 35° C. to 36° C. for 1 hour after the last drug or vehicle injection. Drug solutions were prepared in PBS and injected intraperitoneally (0.05 mL volume) 15 minutes, and 2.25 hours after intrastriatal injection of NMDA. Control animals received equal volumes of PBS.
# After surgery, all animals were returned to the mothers for 5 days, and decapitated on PND 12. The brains were removed, the cerebral hemispheres were separated, and wet weights of each hemisphere were determined individually. Differences of the hemispheric weights were compared for each animal using the formula: 100×(C-I/C)=percent damage, a value that indicates the severity of damage of the injected (I) cerebral hemisphere relative to that of the uninjected contralateral (C) hemisphere. Percent protection is used to indicate the relative protection of the neuroprotective compound compared to the control and was calculated as: 100×[1-(% damagetreated /% damagecontrol)]. Data were expressed as mean percent damage±S.E.M. in all groups. Independent t-tests were used for statistical comparisons.
# [1] = tested on: canine leptomeningeal smooth muscle cells; assay: Amyloid β-peptide-induced cytotoxicity in canine leptomeningeal smooth muscle cells; type: cell-based, dog
# Text: Canine smooth muscle cells were isolated from freshly obtained old dog meninges. […] Old dogs have an angiopathy resembling the human condition. Smooth muscle cells are the site of cerebral vessel myopathy occurring in the Dutch form of Alzheimer's disease. The compromise of these cells ultimately leads to a cerebrovascular accident and the death of some humans.
# Cells from the meninges were dissociated and kept in culture in 10% fetal calf serum and Dulbecco's minimal essential media with antibiotics for about 1 week on tissue culture plates before use in biochemical studies or transferal to uncoated microscope slides for morphological studies. These smooth muscle cells represent brain blood vessel cells and they can be passaged several times. For inducing cytotoxicity, the cells were treated, in serum-free media, with 10 to 20 μM of amyloid β-peptide that was 42 amino acids long. This peptide corresponds to the human β-peptide sequence. The peptide was dissolved in water immediately before use. This small amount of protein is believed to approximate the concentration of protein observed in postmortem samples in the brains of people who died with Alzheimer's dementia.
# Percentages were determined by counting normal and apoptotic nuclei in three fields with five independent measures in a fluorescence microscope.
compound,measurement,setting,value
"CC(C)(C)c1cc(C=C2SC(=N)NC2=O)cc(C(C)(C)C)c1O [5-[[3,5-bis-(1,1-dimethylethyl)-4-hydroxyphenyl]methylene]-2-imino-4-thiazolidinone]",inhibition of 5-lipoxygenase activity,5-lipoxygenase,inhibits the activities of both cyclooxygenase and 5-lipoxygenase
same,inhibition of cyclooxygenase activity,cyclooxygenase,inhibits the activities of both cyclooxygenase and 5-lipoxygenase
"CN[C@H](CC(=O)O)C(=O)O [NMDA, N-methyl-D-aspartate, reference compound]",reduction in wet weight of the ipsilateral cerebral hemisphere,"NMDA-induced injury; NMDA 15 nmol/0.5 μL injected into posterior striatum, i.p. PBS, N=10",20.6±1.8%
"COc1ccc2c(c1)c(CC(=O)O)c(C)n2C(=O)c1ccc(Cl)cc1 [indomethacin, reference compound]",protection compared with the thiazolidinone,"NMDA-induced injury; 2×30 mg/kg, versus thiazolidinone 2×30 mg/kg",comparable
human protein sequence: amyloid β-peptide that was 42 amino acids long; corresponds to the human β-peptide sequence [reference compound],earliest statistically significant cytotoxicity,[1]; 10 to 20 μM amyloid β-peptide,24 h
same,smooth muscle cells killed apoptotically,"[1]; 10 to 20 μM, 1-week period, serum-free media, Hoechst 33258, 10080 min",70% to 85
